The text below walks through data of publication PMC3675115, “Mycobacterium tuberculosis Rv3406 Is a Type II Alkyl Sulfatase Capable of Sulfate Scavenging” (PLoS ONE, 2013).

Structures can show the parent of a compound that is named as a salt.

In assay [1] the target is T1, AtsK (Pseudomonas putida, UniProt Q9WWU5).
T1 construct: not described in main text (supplement File S1)
Description: NADH/LADH coupled assay, […] nm. The assay is classed as biochemical. The settings on record: alpha-ketoglutarate, Fe(II), ascorbate; 1 and 10 mM substrate.

Assay [2] addresses Rv3406 (Mycobacterium tuberculosis, UniProt P9WKZ1). Description: NADH/LADH coupled assay, […] nm. The class given is biochemical. Conditions: co-substrate with 2-EHS, Fe(II), ascorbate, pH 7.5, 25 C.

T1 sequence (Q9WWU5 whole entry): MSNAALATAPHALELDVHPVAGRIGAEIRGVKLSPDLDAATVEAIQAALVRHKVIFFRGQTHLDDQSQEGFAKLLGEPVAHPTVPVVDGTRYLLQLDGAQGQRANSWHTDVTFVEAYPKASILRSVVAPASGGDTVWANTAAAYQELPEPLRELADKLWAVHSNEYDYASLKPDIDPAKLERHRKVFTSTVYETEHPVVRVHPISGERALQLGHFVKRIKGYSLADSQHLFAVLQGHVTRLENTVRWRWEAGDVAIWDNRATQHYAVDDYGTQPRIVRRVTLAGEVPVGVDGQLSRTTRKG

On to `CCCCC(CC)COS(=O)(=O)O` (centres unmarked) [2-ethylhexyl sulfate], for which the “NADH/LADH coupled assay, 340 nm” value in assay [1] is “we also tested AtsK and found 2-EHS was its preferred substrate as well”. On to `O=C(O)CCC(=O)C(=O)O` [α-ketoglutarate], for which the “NADH/LADH coupled assay, 340 nm” value in assay [2] is reported as “Rv3406’s activity on 2-EHS is dependent on the cosubstrate αKG”.
